Measurements taken from patent US20220242870A1, “HETEROCYCLE-FUSED PYRIMIDINE DERIVATIVE AND USE THEREOF” (VORONOI Inc., priority 2019, published 2022).

Columns and labels:
Assay in all cases: scanMAX kinase assay panel
Assay type in all cases: binding
[1] = biological target: T1, GRK4 (Homo sapiens, UniProt P32298); details: read-out: control percentage (% control)
T1 construct: purchased DiscoverX scanMAX kinase assay panel
Procedure, shortened: (§1)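 Compound was applied as a 1 μM solution in DMSO across the scanMAX kinase panel. Activity is reported as % control, scaled between a positive control (0%) and the DMSO negative control (100%).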

[2] = biological target: T2, CIT (Homo sapiens, UniProt O14578); details: read-out: control percentage (% control)
T2 construct: purchased DiscoverX (scanMAX panel, contract assay)
Procedure, shortened: as §1

[3] = biological target: T3, MET(Y1235D) (Homo sapiens, UniProt P08581, Y1235D); details: read-out: control percentage (% control)
T3 construct: purchased DiscoverX scanMAX kinase assay panel
Procedure, shortened: as §1

[4] = biological target: T4, TRKA (Homo sapiens, UniProt P04629); details: read-out: control percentage (% control)
T4 construct: purchased DiscoverX
Procedure, shortened: as §1

[5] = biological target: T5, MST3 (Homo sapiens, UniProt Q9Y6E0); details: read-out: control percentage (% control)
T5 construct: purchased DiscoverX scanMAX kinase assay panel
T5 sequence (Q9Y6E0 whole entry): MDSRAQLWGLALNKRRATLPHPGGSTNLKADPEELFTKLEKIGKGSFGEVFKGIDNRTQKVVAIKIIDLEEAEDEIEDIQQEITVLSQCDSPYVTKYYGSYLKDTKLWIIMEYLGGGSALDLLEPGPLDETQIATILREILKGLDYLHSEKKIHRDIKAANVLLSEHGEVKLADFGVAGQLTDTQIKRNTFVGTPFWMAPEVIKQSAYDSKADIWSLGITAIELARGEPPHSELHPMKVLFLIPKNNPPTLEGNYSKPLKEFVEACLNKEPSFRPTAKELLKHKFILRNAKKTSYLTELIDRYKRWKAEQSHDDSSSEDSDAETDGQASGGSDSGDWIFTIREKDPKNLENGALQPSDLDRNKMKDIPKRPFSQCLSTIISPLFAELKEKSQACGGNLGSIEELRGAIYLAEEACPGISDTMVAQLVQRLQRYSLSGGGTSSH
Procedure, shortened: as §1

[6] = biological target: T6, ULK2 (Homo sapiens, UniProt Q8IYT8); details: read-out: control percentage (% control)
T6 construct: purchased DiscoverX
Procedure, shortened: as §1

[7] = biological target: T7, FGR (Homo sapiens, UniProt P09769); details: read-out: control percentage (% control)
T7 construct: purchased DiscoverX scanMAX kinase assay panel
Procedure, shortened: as §1

[8] = biological target: T8, MUSK (Homo sapiens, UniProt O15146); details: read-out: control percentage (% control)
T8 construct: purchased DiscoverX scanMAX kinase assay panel
Procedure, shortened: as §1

[9] = biological target: T9, SYK (Homo sapiens, UniProt P43405); details: read-out: control percentage (% control)
T9 construct: purchased DiscoverX
Procedure, shortened: as §1

[10] = tested on: FLT3(ITD, F691L); details: 1 μM
Procedure, shortened: as §1

[11] = biological target: T10, VRK2 (Homo sapiens, UniProt Q86Y07); details: read-out: control percentage (% control)
T10 construct: purchased DiscoverX
Procedure, shortened: as §1

[12] = biological target: T11, ABL1(T315I)-phosphoryIated (Homo sapiens, UniProt P00519, T315I); details: read-out: control percentage (% control)
T11 construct: purchased DiscoverX (scanMAX panel, contract assay)
Procedure, shortened: as §1

[13] = biological target: T12, LCK (Homo sapiens, UniProt P06239); details: read-out: control percentage (% control)
T12 construct: purchased DiscoverX scanMAX kinase assay panel
T12 sequence (P06239 whole entry): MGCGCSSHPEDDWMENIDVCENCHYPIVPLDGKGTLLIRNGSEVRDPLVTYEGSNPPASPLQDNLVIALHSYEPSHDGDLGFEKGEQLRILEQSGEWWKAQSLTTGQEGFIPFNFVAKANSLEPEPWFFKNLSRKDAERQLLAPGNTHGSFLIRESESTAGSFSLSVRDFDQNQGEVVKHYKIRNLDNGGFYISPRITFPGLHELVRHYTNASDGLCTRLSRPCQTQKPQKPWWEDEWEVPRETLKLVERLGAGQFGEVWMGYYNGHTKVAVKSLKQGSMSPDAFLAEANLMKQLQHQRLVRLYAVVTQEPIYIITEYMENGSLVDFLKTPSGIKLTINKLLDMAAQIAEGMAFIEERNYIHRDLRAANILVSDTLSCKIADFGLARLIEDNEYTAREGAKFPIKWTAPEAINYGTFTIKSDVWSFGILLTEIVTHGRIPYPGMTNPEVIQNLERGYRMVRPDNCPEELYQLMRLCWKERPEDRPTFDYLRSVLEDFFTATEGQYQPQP
Procedure, shortened: as §1

[14] = biological target: T13, TAK1 (Homo sapiens, UniProt O43318); details: read-out: control percentage (% control)
T13 construct: purchased DiscoverX
Procedure, shortened: as §1

[15] = biological target: T14, SLK (Homo sapiens, UniProt Q9H2G2); details: read-out: control percentage (% control)
T14 construct: purchased DiscoverX
Procedure, shortened: as §1

[16] = biological target: T15, ROCK1 (Homo sapiens, UniProt Q13464); details: read-out: control percentage (% control)
T15 construct: purchased DiscoverX scanMAX kinase assay panel
T15 sequence (Q13464 whole entry): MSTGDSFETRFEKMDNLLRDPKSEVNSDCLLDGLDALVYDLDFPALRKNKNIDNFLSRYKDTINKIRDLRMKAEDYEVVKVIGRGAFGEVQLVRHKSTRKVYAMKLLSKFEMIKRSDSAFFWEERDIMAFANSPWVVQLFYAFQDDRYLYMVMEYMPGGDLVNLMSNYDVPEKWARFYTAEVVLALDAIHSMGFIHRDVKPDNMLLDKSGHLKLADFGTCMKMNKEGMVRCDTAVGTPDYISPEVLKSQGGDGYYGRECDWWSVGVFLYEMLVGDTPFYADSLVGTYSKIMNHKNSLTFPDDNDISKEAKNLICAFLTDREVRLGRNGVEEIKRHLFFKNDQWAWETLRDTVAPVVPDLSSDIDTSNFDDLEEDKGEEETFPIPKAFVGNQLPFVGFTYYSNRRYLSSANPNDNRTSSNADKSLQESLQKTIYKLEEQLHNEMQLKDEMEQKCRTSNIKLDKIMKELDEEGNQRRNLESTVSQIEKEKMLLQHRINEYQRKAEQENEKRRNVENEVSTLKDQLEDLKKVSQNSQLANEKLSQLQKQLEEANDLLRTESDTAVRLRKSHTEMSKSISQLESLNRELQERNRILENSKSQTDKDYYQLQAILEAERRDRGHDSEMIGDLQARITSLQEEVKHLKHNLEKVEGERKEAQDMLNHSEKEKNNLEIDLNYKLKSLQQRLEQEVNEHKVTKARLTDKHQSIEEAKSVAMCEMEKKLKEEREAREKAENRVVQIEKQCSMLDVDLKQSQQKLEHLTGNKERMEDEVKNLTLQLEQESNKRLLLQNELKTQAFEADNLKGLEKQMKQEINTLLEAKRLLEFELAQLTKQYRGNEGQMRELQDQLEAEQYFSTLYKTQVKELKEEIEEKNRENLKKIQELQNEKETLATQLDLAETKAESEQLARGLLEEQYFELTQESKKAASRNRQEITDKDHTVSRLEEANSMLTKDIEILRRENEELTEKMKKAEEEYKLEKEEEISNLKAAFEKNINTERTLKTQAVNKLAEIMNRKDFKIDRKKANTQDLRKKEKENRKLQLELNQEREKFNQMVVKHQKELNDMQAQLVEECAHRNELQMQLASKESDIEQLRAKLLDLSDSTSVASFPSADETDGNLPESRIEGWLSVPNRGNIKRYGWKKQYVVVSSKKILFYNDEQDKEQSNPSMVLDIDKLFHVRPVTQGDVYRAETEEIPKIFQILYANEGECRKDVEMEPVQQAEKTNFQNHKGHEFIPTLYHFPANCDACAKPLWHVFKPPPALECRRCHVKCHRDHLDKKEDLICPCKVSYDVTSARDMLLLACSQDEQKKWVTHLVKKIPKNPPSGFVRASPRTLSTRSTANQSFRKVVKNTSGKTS
Procedure, shortened: as §1

[17] = biological target: T16, LTK (Homo sapiens, UniProt P29376); details: read-out: control percentage (% control)
T16 construct: purchased DiscoverX scanMAX kinase assay panel
T16 sequence (P29376 17-864): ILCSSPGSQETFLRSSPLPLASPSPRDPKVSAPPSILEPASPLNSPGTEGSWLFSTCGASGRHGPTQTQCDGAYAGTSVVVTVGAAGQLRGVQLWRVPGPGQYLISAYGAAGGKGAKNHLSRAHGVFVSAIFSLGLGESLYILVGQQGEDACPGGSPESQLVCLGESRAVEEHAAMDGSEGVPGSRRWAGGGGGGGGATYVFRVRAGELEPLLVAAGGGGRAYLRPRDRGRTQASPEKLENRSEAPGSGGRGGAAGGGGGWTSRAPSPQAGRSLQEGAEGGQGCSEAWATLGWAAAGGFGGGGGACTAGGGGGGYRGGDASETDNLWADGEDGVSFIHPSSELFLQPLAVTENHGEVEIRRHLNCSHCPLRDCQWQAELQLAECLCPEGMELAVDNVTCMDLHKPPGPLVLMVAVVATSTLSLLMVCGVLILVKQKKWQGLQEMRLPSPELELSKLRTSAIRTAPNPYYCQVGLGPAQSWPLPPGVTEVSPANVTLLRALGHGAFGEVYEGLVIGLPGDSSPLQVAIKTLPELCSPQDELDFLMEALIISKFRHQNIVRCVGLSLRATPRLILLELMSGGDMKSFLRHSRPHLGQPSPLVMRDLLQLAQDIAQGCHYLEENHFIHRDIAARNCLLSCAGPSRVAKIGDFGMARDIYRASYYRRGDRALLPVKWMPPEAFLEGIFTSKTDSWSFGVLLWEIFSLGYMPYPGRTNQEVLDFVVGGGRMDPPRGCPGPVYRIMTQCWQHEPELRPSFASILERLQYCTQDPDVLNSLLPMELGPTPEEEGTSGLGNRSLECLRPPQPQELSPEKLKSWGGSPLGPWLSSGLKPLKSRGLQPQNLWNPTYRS
Procedure, shortened: as §1

[18] = biological target: T17, MAP4K3 (Homo sapiens, UniProt Q8IVH8); details: read-out: control percentage (% control)
T17 construct: purchased DiscoverX scanMAX kinase assay panel
Procedure, shortened: as §1

[19] = tested on: FLT3(ITD); details: 1 μM
Procedure, shortened: as §1

[20] = biological target: T18, MEK1 (Homo sapiens, UniProt Q02750); details: read-out: control percentage (% control)
T18 construct: purchased DiscoverX scanMAX kinase assay panel
Procedure, shortened: as §1

[21] = biological target: T19, ABL1(T315I)-nonphosphorylated (Homo sapiens, UniProt P00519, T315I); details: read-out: control percentage (% control)
T19 construct: purchased DiscoverX (scanMAX panel, contract assay)
Procedure, shortened: as §1

[22] = biological target: T20, FLT3 (Homo sapiens, UniProt P36888); details: read-out: control percentage (% control)
T20 construct: purchased DiscoverX scanMAX kinase assay panel
Procedure, shortened: as §1

[23] = biological target: T21, EGFR(L858R, T790M) (Homo sapiens, UniProt P00533, L858R/T790M); details: read-out: control percentage (% control)
T21 construct: purchased DiscoverX scanMAX kinase assay panel
Procedure, shortened: as §1

[24] = biological target: T22, EGFR(L858R) (Homo sapiens, UniProt P00533, L858R); details: read-out: control percentage (% control)
T22 construct: purchased DiscoverX scanMAX kinase assay panel
Procedure, shortened: as §1

[25] = biological target: T23, MEK5 (Homo sapiens, UniProt Q13163); details: read-out: control percentage (% control)
T23 construct: purchased DiscoverX scanMAX kinase assay panel
T23 sequence (Q13163 whole entry): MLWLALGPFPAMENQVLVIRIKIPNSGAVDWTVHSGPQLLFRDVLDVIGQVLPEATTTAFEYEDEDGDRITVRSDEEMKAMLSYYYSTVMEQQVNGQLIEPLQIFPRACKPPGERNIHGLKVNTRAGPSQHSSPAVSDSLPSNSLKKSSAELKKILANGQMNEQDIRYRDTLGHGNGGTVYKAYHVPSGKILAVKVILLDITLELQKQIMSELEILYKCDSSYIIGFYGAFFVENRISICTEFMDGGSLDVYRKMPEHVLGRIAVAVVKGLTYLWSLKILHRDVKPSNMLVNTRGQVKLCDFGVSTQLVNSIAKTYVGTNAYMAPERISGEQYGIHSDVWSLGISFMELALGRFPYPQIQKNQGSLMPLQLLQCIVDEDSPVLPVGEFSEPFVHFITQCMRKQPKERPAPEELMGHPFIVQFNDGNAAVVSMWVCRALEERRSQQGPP
Procedure, shortened: as §1

[26] = biological target: T24, RET (Homo sapiens, UniProt P07949); details: read-out: control percentage (% control)
T24 construct: purchased DiscoverX scanMAX kinase assay panel
T24 sequence (P07949 29-1114): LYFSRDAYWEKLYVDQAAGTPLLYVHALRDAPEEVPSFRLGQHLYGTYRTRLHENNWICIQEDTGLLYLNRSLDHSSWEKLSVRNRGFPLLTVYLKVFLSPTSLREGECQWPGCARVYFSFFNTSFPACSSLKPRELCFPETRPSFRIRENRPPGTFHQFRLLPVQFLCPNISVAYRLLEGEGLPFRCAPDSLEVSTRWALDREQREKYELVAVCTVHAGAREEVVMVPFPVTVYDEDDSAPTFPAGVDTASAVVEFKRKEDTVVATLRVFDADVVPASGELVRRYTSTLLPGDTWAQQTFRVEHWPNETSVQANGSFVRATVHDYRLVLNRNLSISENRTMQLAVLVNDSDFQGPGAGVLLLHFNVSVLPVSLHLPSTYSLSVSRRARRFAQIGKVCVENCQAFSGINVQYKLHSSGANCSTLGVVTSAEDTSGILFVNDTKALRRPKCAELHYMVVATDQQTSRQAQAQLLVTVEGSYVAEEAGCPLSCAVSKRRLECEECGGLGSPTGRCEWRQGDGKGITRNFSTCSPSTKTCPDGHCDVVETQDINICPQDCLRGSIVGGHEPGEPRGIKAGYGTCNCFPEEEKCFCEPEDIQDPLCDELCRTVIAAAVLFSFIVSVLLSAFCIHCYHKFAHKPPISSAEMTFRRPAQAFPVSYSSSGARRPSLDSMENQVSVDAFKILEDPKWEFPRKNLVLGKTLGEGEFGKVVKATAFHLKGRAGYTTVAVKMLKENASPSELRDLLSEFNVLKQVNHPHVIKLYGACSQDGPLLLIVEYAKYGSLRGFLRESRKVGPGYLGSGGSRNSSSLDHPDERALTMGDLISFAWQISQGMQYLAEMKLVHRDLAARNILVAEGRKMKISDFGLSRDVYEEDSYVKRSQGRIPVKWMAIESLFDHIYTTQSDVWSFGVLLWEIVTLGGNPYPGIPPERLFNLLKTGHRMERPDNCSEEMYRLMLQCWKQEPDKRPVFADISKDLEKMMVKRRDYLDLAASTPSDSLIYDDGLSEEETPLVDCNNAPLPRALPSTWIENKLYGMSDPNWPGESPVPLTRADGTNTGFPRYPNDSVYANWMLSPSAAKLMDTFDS
Procedure, shortened: as §1

[27] = biological target: T25, HPK1 (Homo sapiens, UniProt Q92918); details: read-out: control percentage (% control)
T25 construct: purchased DiscoverX scanMAX kinase assay panel
Procedure, shortened: as §1

[28] = biological target: T26, LRRK2(G2019S) (Homo sapiens, UniProt Q5S007, G2019S); details: read-out: control percentage (% control)
T26 construct: purchased DiscoverX scanMAX kinase assay panel
Procedure, shortened: as §1

[29] = biological target: T27, STK16 (Homo sapiens, UniProt O75716); details: read-out: control percentage (% control)
T27 construct: purchased DiscoverX
T27 sequence (O75716 whole entry): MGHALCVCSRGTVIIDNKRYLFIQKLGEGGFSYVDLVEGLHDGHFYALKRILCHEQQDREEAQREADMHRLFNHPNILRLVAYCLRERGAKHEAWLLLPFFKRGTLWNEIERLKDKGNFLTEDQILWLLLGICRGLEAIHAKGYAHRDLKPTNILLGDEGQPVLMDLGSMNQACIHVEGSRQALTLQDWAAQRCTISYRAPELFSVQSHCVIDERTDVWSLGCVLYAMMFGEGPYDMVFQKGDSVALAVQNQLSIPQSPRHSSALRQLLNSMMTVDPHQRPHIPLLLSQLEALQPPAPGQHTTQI
Procedure, shortened: as §1

[30] = biological target: T28, EGFR (Homo sapiens, UniProt P00533); details: read-out: control percentage (% control)
T28 construct: purchased DiscoverX scanMAX kinase assay panel
Procedure, shortened: as §1

[31] = biological target: T29, PIP5K1A (Homo sapiens, UniProt Q99755); details: read-out: control percentage (% control)
T29 construct: purchased DiscoverX scanMAX kinase assay panel
Procedure, shortened: as §1

[32] = biological target: T30, NEK10 (Homo sapiens, UniProt Q6ZWH5); details: read-out: control percentage (% control)
T30 construct: purchased DiscoverX scanMAX kinase assay panel
Procedure, shortened: as §1

[33] = biological target: T31, MEK2 (Homo sapiens, UniProt P36507); details: read-out: control percentage (% control)
T31 construct: purchased DiscoverX scanMAX kinase assay panel
Procedure, shortened: as §1

[34] = biological target: T32, LRRK2 (Homo sapiens, UniProt Q5S007); details: read-out: control percentage (% control)
T32 construct: purchased DiscoverX scanMAX kinase assay panel
Procedure, shortened: as §1

[35] = biological target: T33, DMPK (Homo sapiens, UniProt Q09013); details: read-out: control percentage (% control)
T33 construct: purchased DiscoverX scanMAX kinase assay panel
Procedure, shortened: as §1

[36] = biological target: T34, LOK (Homo sapiens, UniProt O94804); details: read-out: control percentage (% control)
T34 construct: purchased DiscoverX scanMAX kinase assay panel
Procedure, shortened: as §1

CN1CCN(c2ccc(Nc3nc(N4OCC[C@H]4c4ccccc4)c4cc[nH]c4n3)cc2)CC1 [Example 74, (S)-N-(4-(4-methylpiperazin-1-yl)phenyl)-4-(3-phenylisoxazolidin-2-yl)-7H-pyrrolo[2,3-d]pyrimidin-2-amine]
remaining binding at 1 µM [1]: 9.3%
remaining binding at 1 µM [2]: 0.3%
remaining binding at 1 µM [3]: 7%
remaining binding at 1 µM [4]: 1.1%
remaining binding at 1 µM [5]: 32%
remaining binding at 1 µM [6]: 2.5%
remaining binding at 1 µM [7]: 17%
remaining binding at 1 µM [8]: 0.4%
remaining binding at 1 µM [9]: 32%
control percentage (% control) [10]: 0%
remaining binding at 1 µM [11]: 33%
remaining binding at 1 µM [12]: 8.4%
remaining binding at 1 µM [13]: 12%
remaining binding at 1 µM [14]: 16%
remaining binding at 1 µM [15]: 0.25%
remaining binding at 1 µM [16]: 11%
remaining binding at 1 µM [17]: 27%
remaining binding at 1 µM [18]: 13%
control percentage (% control) [19]: 0.45%
remaining binding at 1 µM [20]: 16%
remaining binding at 1 µM [21]: 29%
remaining binding at 1 µM [22]: 3.9%
remaining binding at 1 µM [23]: 17%
remaining binding at 1 µM [24]: 20%
remaining binding at 1 µM [25]: 26%
remaining binding at 1 µM [26]: 20%
remaining binding at 1 µM [27]: 0.85%
remaining binding at 1 µM [28]: 25%
remaining binding at 1 µM [29]: 26%
remaining binding at 1 µM [30]: 28%
remaining binding at 1 µM [31]: 1.2%
remaining binding at 1 µM [32]: 0%
remaining binding at 1 µM [33]: 17%
remaining binding at 1 µM [34]: 28%
remaining binding at 1 µM [35]: 0.65%
remaining binding at 1 µM [36]: 8.7%
